From patent publication US20250340569A1, “INHIBITORS OF KIF18A AND USES THEREOF” (Insilico Medicine IP Limited, priority 2023, published 2025)

Legend:
[1] = molecular target: T1, Kif18A (Homo sapiens, UniProt Q8NI77); experiment: KIF18A assay (ADP Glo); settings: biochemical assay, ADP Glo luminescence
T1 sequence (Q8NI77 1-898): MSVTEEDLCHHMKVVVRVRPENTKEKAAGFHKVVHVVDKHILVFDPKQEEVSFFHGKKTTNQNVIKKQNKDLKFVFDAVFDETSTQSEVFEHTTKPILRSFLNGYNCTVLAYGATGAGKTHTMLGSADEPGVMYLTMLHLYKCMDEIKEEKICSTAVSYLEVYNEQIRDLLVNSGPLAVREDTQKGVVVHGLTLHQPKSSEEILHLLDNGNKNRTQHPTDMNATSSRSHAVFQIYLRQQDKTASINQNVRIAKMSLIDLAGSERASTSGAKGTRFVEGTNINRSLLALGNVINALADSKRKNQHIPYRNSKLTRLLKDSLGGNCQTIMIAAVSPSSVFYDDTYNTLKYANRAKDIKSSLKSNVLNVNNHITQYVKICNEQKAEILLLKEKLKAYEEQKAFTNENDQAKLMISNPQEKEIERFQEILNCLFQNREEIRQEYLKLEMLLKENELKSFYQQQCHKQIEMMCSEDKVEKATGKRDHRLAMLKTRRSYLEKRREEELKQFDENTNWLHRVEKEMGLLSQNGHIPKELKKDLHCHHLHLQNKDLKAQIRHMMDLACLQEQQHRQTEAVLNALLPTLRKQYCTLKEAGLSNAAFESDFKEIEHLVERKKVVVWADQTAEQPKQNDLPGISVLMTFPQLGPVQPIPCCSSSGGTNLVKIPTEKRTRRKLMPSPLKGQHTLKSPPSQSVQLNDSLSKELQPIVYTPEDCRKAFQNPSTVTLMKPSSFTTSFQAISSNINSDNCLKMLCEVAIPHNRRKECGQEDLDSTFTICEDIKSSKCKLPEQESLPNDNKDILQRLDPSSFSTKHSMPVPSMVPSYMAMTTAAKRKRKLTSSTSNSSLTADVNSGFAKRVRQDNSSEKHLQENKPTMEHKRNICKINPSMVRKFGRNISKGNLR
Protocol: The KIF18A assay was performed as follows:
1.1. Prepared 1× Kinase Buffer
• a) Added 40 μL test compound to 384-well dilution plate • b) Diluted compound 1:3 in succession in DMSO for each column for 10 pts • c) Transferred 0.1 μL diluted compound solution to 384 assay plate using Echo, each column containing 2 replicates • d) Added 5 μL enzyme working solution to 384-well assay plate, centrifuge 1000 RPM for 1 min e) Incubated at 25° C. for 15 min • f) Added 5 μL ATP working solution to initiate reaction • g) Incubated at 25° C. for 60 min • h) Added 10 μL ADP Glo reagent, centrifuge 1000 RPM for 1 min • i) Incubated at 25° C. for 60 min • j) Added 20 μL kinase detection reagent, centrifuge 1000 RPM for 1 min • k) Incubated at 25° C. for 60 min • l) Read Luminescence Signal on Envision 2104 plate reader.
1.3. Data Analysis—Calculated IC50 and Plot Dose-Response Curve of Compounds:
Calculated IC50 by fitting % Inhibition values and log of compound concentrations to nonlinear regression (dose response−variable slope) with GraphPad 6.0.
[formula] • X: log of inhibitor concentration; Y: % Inhibition

[2] = test system: OVCAR-3; experiment: OVCAR3 CTG assay; format: cell-based; settings: CellTiter-Glo, 6 days incubation
Description: Example B2: OVCAR3 CTG Assay
• a) Preparation of complete medium: Added FBS and appropriate additives according to the information sheet provided by the vendor. Mix gently. • b) Checked the cell name and complete medium and passage number marked on the flask. For adherent cell lines, refer to c to k. For suspension cell lines, refer to g to k. • c) Removed and discarded culture medium using a vacuum pump. • d) Briefly rinsed the cell layer with 0.25% (w/v) Trypsin-0.038% (w/v) EDTA solution to remove all traces of serum that contains trypsin inhibitor. • e) Added 3.0 ml of Trypsin-EDTA solution to flask and observed cells under an inverted microscope until cell layer is dispersed. • f) Added 9.0 ml of complete growth medium and aspirated cells by gently pipetting. • g) Transfered the cell suspension to a centrifuge tube and centrifuged at 1000 rpm for 4 minutes. • h) Discarded the supernatant using a vacuum pump. • i) Added appropriate volume of complete medium. Suspended the cell pellet by gently pipetting. • j) Counted the cell numbers with Vi-cell XR and adjusted cells to appropriate density. • k) Added 190 μL of cell suspension to 96-well opaque-walled clear bottom plates according to the planned plate layout and placed the plates in the CO2 incubator overnight.
2) Compound Stock Preparation:
• a) Plate preparation of testing articles:
The compounds were dissolved in DMSO to prepare 10 mM stock solution. The start working concentration (2 mM) was prepared with DMSO.
b) Staurosporine Plate Preparation:
0.4 mM Staurosporine was prepared in DMSO at working concentration.
The 20× compound containing medium was prepared according to the plate map. 10 μL of 20× compound containing medium was added into each well of the assay plates. Centrifuged at 1000 rpm for 1 minute. The total dilution was 200-fold.
3) Cells were Incubated with the Compounds for 6 Days at 5% CO2, 37° C.
Assay Measurement for CTG Assay
1) Preparation of Reagents
• a) Thawed the CellTiter-Glo buffer and equilibrated to room temperature prior to use. • b) Equilibrated the lyophilized CellTiter-Glo substrate to room temperature prior to use. • c) Transfered the appropriate volume of CellTiter-Glo buffer into the amber bottle containing CellTiter-Glo substrate to reconstitute the lyophilized enzyme/substrate mixture. This formed the CellTiter-Glo reagent. • d) Mixed by gently vortexing, swirling or by inverting the contents to obtain a homogeneous solution. The CellTiter-Glo substrate went into solution easily in less than one minute.
• a) Observed the cell morphology under an inverted microscope after corresponding treatment. • b) Equilibrated the plate and its contents to room temperature for approximately 30 minutes. • c) Added 100 μL of CellTiter-Glo reagent to the assay plate by Multidrop Combi instrument. • d) Mixed contents for 10 minutes on an orbital shaker to induce cell lysis. • e) Allowed the plate to incubate at room temperature for 10 minutes to stabilize luminescent signal. • f) Pasted the clear bottom with white back seal and record luminescence with Envision. The settings should be: Luminescence, measurement time 0.1 s.

Structure (SMILES)	IC50 [1] [nM]	IC50 ([2]; Homo sapiens, OVCAR-3, 144 h) [nM]	IC50 [2] [nM]
Cc1cc2nc(n1)N(C)CC(C)COCC1(C(F)(F)F)CCN(CC1)c1cc(NS(=O)(=O)CCO)ccc1C(=O)N2 (stereo not shown) [EX35]	10 to 100	100 to 1000	
Cc1cc2nc(n1)N(C)C[C@@H](C)COCC1(C)CCN(CC1)c1cc(NS(=O)(=O)CCO)ccc1C(=O)N2 [EX33-B]	10 to 100	1000 to 10000	
C[C@@H]1CNc2cccc(n2)NC(=O)c2ccc(NS(=O)(=O)CCO)cc2N2CCC(C(F)(F)F)(CC2)COC1 [EX56-B]	< 10	< 10	
CN1CCOCC2(C)CCN(CC2)c2cc(NS(=O)(=O)CCO)ccc2C(=O)Nc2cccc(c2)C1=O [EX10]	10 to 100	100 to 1000	
Cc1cc2nc(n1)NC[C@@H](C)COCC1(C(F)(F)F)CCN(CC1)c1cc(NS(=O)(=O)CCO)ccc1C(=O)N2 [EX36-B]	10 to 100	< 10	
Cc1cc2nc(n1)N(C)CCCOCC1(C(F)(F)F)CCN(CC1)c1cc(NS(=O)(=O)CCO)ccc1C(=O)N2 [EX27]	10 to 100	100 to 1000	
O=C1Nc2cccc(n2)N2CCO[C@@H](COCC3(C(F)(F)F)CCN(CC3)c3cc(NS(=O)(=O)CCO)ccc31)C2 [EX81-A]	10 to 100	< 10	
CC12CCN(CC1)c1cc(NS(=O)(=O)CCO)ccc1C(=O)Nc1ccc(=O)n(n1)CCCCOC2 [EX13]	10 to 100	100 to 1000	
Cc1cc2nc(n1)N1CCOC(COCC3(C(F)(F)F)CCN(CC3)c3cc(NS(=O)(=O)CCO)c(F)cc3C(=O)N2)C1 (stereo not shown) [EX112]	< 10	< 10	
O=C1Nc2cccc(n2)OCCCOCC2CCN(CC2)c2cc(NS(=O)(=O)CCO)ccc21 [EX11]	10 to 100	100 to 1000	
Cc1cc2nc(n1)N(C)CCCOCC1(C)CCN(CC1)c1cc(NS(=O)(=O)CCO)ccc1C(=O)N2 [EX06]	< 10	100 to 1000	
CC1CCCC2(C(F)(F)F)CCN(CC2)c2cc(NS(=O)(=O)CCO)ncc2C(=O)Nc2cccc(n2)NC1 (single isomer, unassigned) [EX100-B]	< 10	< 10	
[2H]C([2H])([2H])N1CCCOCC2(C(F)(F)F)CCN(CC2)c2cc(NS(=O)(=O)CCO)ccc2C(=O)Nc2cc(C)cc1n2 [EX67]	10 to 100	100 to 1000	
Cc1cc2nc(n1)NCC(O)COCC1(C)CCN(CC1)c1cc(NS(=O)(=O)CCO)ccc1C(=O)N2 (stereo not shown) [EX40]	10 to 100		
Cc1cc2nc(n1)N1CCO[C@H](COCC3(C(F)(F)F)CCN(CC3)c3cc(NS(=O)(=O)CCO)ccc3C(=O)N2)C1 [EX96-A]		< 10	
CN1CCC2(C(F)(F)F)CCN(CC2)c2cc(NS(=O)(=O)CCO)ccc2C(=O)Nc2cccc(n2)NCC1=O [EX80]		1000 to 10000	
Cc1cc2nc(n1)NCCCOCC1(C)CCN(CC1)c1nc(NC(C)(C)CO)ccc1C(=O)N2 [EX29]		100 to 1000	
O=C1Nc2cccc(n2)NCC(F)(F)COCC2(C(F)(F)F)CCN(CC2)c2cc(NS(=O)(=O)CCO)ccc21 [EX109]		10 to 100	
CCS(=O)(=O)Nc1cc2c(cn1)C(=O)Nc1cccc(n1)NC[C@@H](C)CCCC1(C(F)(F)F)CCN2CC1 [EX101-B]		< 10	
CN1CCC/C=C/C2(C(F)(F)F)CCN(CC2)c2cc(NS(=O)(=O)CCO)ccc2C(=O)Nc2ccnc1n2 [EX91]		10 to 100	

Structure (SMILES)	IC50 [1] [nM]	IC50 ([2]; Homo sapiens, OVCAR-3, 144 h) [nM]	IC50 [2] [nM]
CN1CCCCCC2(C(F)(F)F)CCN(CC2)c2cc(NS(=O)(=O)CCO)ccc2C(=O)Nc2ccnc1n2 [EX90]		10 to 100	
CC12CCN(CC1)c1cc(S(=O)(=O)NC(C)(C)C)ccc1C(=O)Nc1ccc(=O)n(n1)CCCCOC2 [EX14]		10 to 100	
Cc1cc2nc(n1)N1CCO[C@H](CCCC3(C(F)(F)F)CCN(CC3)c3cc(NS(=O)(=O)CCO)ccc3C(=O)N2)C1 [EX111-A]		100 to 1000	
C[C@H]1C/C=C/C2(C(F)(F)F)CCN(CC2)c2cc(NS(=O)(=O)CCO)ccc2C(=O)Nc2cccc(n2)NC1 [EX85-B]		< 10	
CC12CCN(CC1)c1cc(NS(=O)(=O)CCO)ccc1C(=O)Nc1cc(C(F)(F)F)nc(n1)NCCCOC2 [EX39]		10 to 100	
CCS(=O)(=O)Nc1ccc2c(c1)N1CCC(C(F)(F)F)(CC1)COC[C@H](C)CNc1cccc(n1)NC2=O [EX88-B]		< 10	
Cc1cc2nc(n1)N(C)CCCOCC1(C3CC3)CCN(CC1)c1cc(NS(=O)(=O)CCO)ccc1C(=O)N2 [EX41]		100 to 1000	
CN1CCCOCC2(C(F)(F)F)CCN(CC2)c2cc(NS(=O)(=O)CCO)ccc2C(=O)Nc2cccc1n2 [EX62]		10 to 100	
CCS(=O)(=O)Nc1ccc2c(c1)N1CCC(C(F)(F)F)(CC1)COC[C@@H](C)CNc1cccc(n1)NC2=O [EX88-A]		10 to 100	
CO[C@H]1CNc2nc(C)cc(n2)NC(=O)c2ccc(NS(=O)(=O)CCO)cc2N2CCC(C(F)(F)F)(CC2)COC1 [EX46-A]		10 to 100	
Cc1cc2nc(n1)NC1CC(C1)OCC1(C(F)(F)F)CCN(CC1)c1cc(NS(=O)(=O)CCO)ccc1C(=O)N2 [EX54]			10 to 100
Cc1cc2nc(n1)N1CCO[C@@H](COCC3(C(F)F)CCN(CC3)c3cc(NS(=O)(=O)CCO)ccc3C(=O)N2)C1 [EX113-B]		10 to 100	
[2H]C([2H])([2H])N1CCCOCC2(C(F)(F)F)CCN(CC2)c2cc(NS(=O)(=O)CCO)ccc2C(=O)Nc2ccc(F)c1n2 [EX61]		10 to 100	
Cc1cc2nc(n1)N1CCC(F)(F)[C@H](CCCC3(C)CCN(CC3)c3cc(NS(=O)(=O)CCO)ccc3C(=O)N2)C1 [EX115-A]		100 to 1000	
Cc1cc2nc(n1)NCC1(CC1)COCC1(C(F)(F)F)CCN(CC1)c1cc(NS(=O)(=O)CCO)ccc1C(=O)N2 [EX43]		< 10	
O=C1Nc2ccnc(n2)N2CCO[C@H](COCC3(C(F)(F)F)CCN(CC3)c3cc(NS(=O)(=O)CCO)ccc31)C2 [EX93-A]		< 10	
CCS(=O)(=O)Nc1cc2c(cn1)C(=O)Nc1cccc(n1)NC[C@H](C)CCCC1(C(F)(F)F)CCN2CC1 [EX101-A]		10 to 100	
[2H]C([2H])([2H])N1CCCCCC2(C(F)(F)F)CCN(CC2)c2cc(NS(=O)(=O)CCO)ccc2C(=O)Nc2cccc1n2 [EX60]		10 to 100	
Cc1cc2nc(n1)N1CCO[C@@H](CCCC3(C(F)(F)F)CCN(CC3)c3cc(NS(=O)(=O)CCO)ccc3C(=O)N2)C1 [EX111-B]		10 to 100	
